Laboratory results as given in US20250177579A1, “NOVEL COMPOUND, a-SYNUCLEIN AGGREGATE BINDER, AND USE THEREOF” (NATIONAL INSTITUTES FOR QUANTUM SCIENCE AND TECHNOLOGY, priority 2022, published 2025).

Tests used:
α-synuclein aggregates [1] = biological target: T1, α-synuclein aggregates (Homo sapiens, UniProt P37840); conditions: background art, cited from earlier work
α-synuclein lesions = biological target: T2, α-synuclein lesions (Mus musculus, UniProt O55042); test: In vivo two-photon laser scanning fluorescence microscopy of α-synuclein fibril-inoculated mouse; conditions: 50 μl of 0.1% DMSO solution, imaging 30 minutes after administration, FIG. 4; for binding to α-synuclein lesions in vivo: excitation 900 nm
T2 construct: from tissue; host or cells: brain of a C57/BL/6 mouse inoculated in the striatum with recombinant mouse α-synuclein fibrils (made in E. coli)
Description: First, mouse α-synuclein was expressed in and extracted from E. coli as a recombinant protein, and then incubated in vitro to form insoluble α-synuclein aggregates. The α-synuclein aggregates were then inoculated into the striatum of a mouse. […] Note that the inoculation of the α-synuclein aggregates into the striatum of the mouse was carried out in the following manner. First, hair on the head of a 9-week-old C57/BL/6 male mouse which had been anesthetized with 1.5% (v/v) isoflurane was removed, and the scalp was disinfected with isodine, followed by application of xylocaine and incision in the scalp to expose the skull. Then, a hole was drilled in the skull at a position of 0.05 mm posterior to the bregma and 2 mm lateral to the midline, and 3 μl of an α-synuclein fibril solution (mouse α-synuclein fibril (4 mg/ml) in saline) was injected into a position 2 mm ventral to the brain surface with use of a glass pipette. The scalp was then returned and sutured.
A model mouse was anesthetized with 1.5% (v/v) isoflurane 4 or more months after inoculation of an α-synuclein fibril solution. Then, a cranial window was placed on the model mouse in accordance with the Seylaz-Tomita method (Tomita et al. J Cereb Blood Flow Metab 25, 858-67, 2005). Two or more weeks after the placement of the cranial window, the mouse was fixed under a two-photon laser fluorescence microscope, 100 μl of physiological saline containing 5 mmol/1 Sulforhodamine 101 was intraperitoneally administered to the mouse, and then intravital two-photon fluorescence imaging was carried out at an excitation wavelength of 900 nm. Thereafter, 50 μl of DMSO solution containing C05-05, SPAL-T-83, SPAL-T-95, or SPAL-E-17 at a 0.1% concentration was intraperitoneally administered to the mouse. Thirty minutes after the administration, intravital two-photon fluorescence imaging was carried out at an excitation wavelength of 900 nm. Detection wavelengths for C05-05, SPAL-T-83, SPAL-T-95, and SPAL-E-17 were set at 500 nm to 550 nm, and a detection wavelength for Sulforhodamine 101 was set at 573 nm to 648 nm. In FIG. 4, each arrow indicates a blood vessel, and each arrowhead indicates fluorescence from the compound binding to an α-synuclein lesion.

α-synuclein aggregates [2] = biological target: T1, α-synuclein aggregates; test: In vitro fluorescence microscope measurement, DLB patient brain sections; type: binding; set-up: from tissue; host or cells: amygdala sections of a DLB patient's postmortem brain; conditions: 30 μmol/l test compound, 50% ethanol, amygdala sections of DLB patient, FIGS. 1 and 2
Description: (§1) Postmortem human brains were obtained in autopsies carried out with respect to a patient with dementia with Lewy bodies (DLB) and a patient with Alzheimer's disease (AD). In a cryostat (HM560, Carl Zeiss), frozen tissue from the DLB patient was sliced into sections each having a thickness of 20 μm. Brain tissue from the AD patient was fixed in 10% neutral buffered formalin, embedded in a paraffin block, and sliced into sections each having a thickness of 6 μm.
(§2) Each brain section and a 30 μmol/l test compound were incubated in a 50% ethanol solution at room temperature for 30 minutes. Subsequently, the sections were rinsed with 50% ethanol for 5 minutes and dipped into double-distilled water twice for 3 minutes each. After the section was mounted in a mounting medium (VECTASHIELD H-1000, Vector Laboratories), an image of a lesion-enriched area on the section was obtained with use of a fluorescence microscope (DM4000, Leica). In FIG. 1, each arrowhead indicates fluorescence from the compound binding to α-synuclein aggregates in the brain of the DLB patient, each arrow indicates fluorescence from the compound binding to amyloid-β aggregates in the brain of the AD patient, and an asterisk indicates fluorescence from the compound binding to tau aggregates in the brain of the AD patient. The fluorescence intensities of lesion-enriched areas and lesion-free areas (background) were quantified with use of analysis software (Image J). Note that SPAL-T-83, SPAL-T-95, and SPAL-E-17 were each used as the test compound. Note also that ((E)-1-fluoro-3-(2-(4-(6-(methylamino)pyridin-3-yl)but-1-en-3-ynyl)benzo[d]thiazol-6-yloxy)propan-2-ol (C05-05) synthesized by the method disclosed in Synthetic Example 21 of Patent Literature 2 (International Publication No. WO 2020/174963) listed above was used as a control compound.

[3] = test system: tau aggregates or amyloid-β aggregates; test: In vitro fluorescence microscope measurement, AD patient brain sections compared with DLB sections; type: binding, human; conditions: for binding to α-synuclein aggregates compared with binding to tau aggregates or amyloid-β aggregates formed in the brain of the AD patient: 30 μmol/l test compound, DLB amygdala vs AD superior temporal gyrus sections; for ratio of binding to α-synuclein aggregates to binding to tau aggregates or amyloid-β aggregates, compared with the ratio of C05-05: 30 μmol/l, fluorescence intensity quantified, FIG. 2, comparator C05-05
Description: as §1, §2

[4] = biological target: T3, phosphorylated α-synuclein (Mus musculus, UniProt O55042); test: In vitro fluorescence microscope measurement, brain sections of α-synuclein fibril-inoculated mouse; type: binding; conditions: 30 μmol/l test compound, 20% ethanol, co-stained with pS129 antibody, FIG. 3
T3 construct: from tissue; host or cells: brain of a C57/BL/6 mouse inoculated in the striatum with recombinant mouse α-synuclein fibrils (made in E. coli)
Description: When mouse α-synuclein is expressed in and extracted from E. coli as a recombinant protein and then incubated in vitro, insoluble α-synuclein aggregates are formed. By inoculating these α-synuclein aggregates into the striatum of a mouse, the α-synuclein aggregates propagate to surrounding areas via the neural circuitry, and an α-synuclein lesion is observed in the cerebral neocortex several months later (Masuda-Suzukake et al. Acta Neuropathol Commun 2, 88, 2014; Shimozawa et al. Acta Neuropathol Commun 5, 12, 2017). By extracting the brain of this mouse, preparing a section, and then analyzing the section by fluorescent staining, it is possible to examine whether the compound in accordance with an embodiment of the present invention binds to a lesion caused by phosphorylated α-synuclein.
First, mouse α-synuclein was expressed in and extracted from E. coli as a recombinant protein, and then incubated in vitro to form insoluble α-synuclein aggregates. The α-synuclein aggregates were then inoculated into the striatum of a mouse. […] Note that the inoculation of the α-synuclein aggregates into the striatum of the mouse was carried out in the following manner. […]
The brain of this α-synuclein fibril-inoculated mouse was extracted, and then sections were prepared. The sections were analyzed by fluorescent staining. […] After the section was mounted in a mounting medium (VECTASHIELD H-1000), an image of an α-synuclein aggregate-enriched area on the section was obtained with use of a fluorescence microscope (DM4000). […] After the section was subjected to immunohistochemical staining with use of an anti-phosphorylated α-synuclein monoclonal antibody (pS129, abcam, ab59264) (1:1000) and then mounted in a mounting medium (VECTASHIELD H-1000), an image of the same area as above was obtained with use of a fluorescence microscope (DM4000). […] In FIG. 3, each arrowhead indicates a lesion, caused by phosphorylated α-synuclein, in the brain of the α-synuclein fibril-inoculated mouse and fluorescence from the compound binding to the phosphorylated α-synuclein.

Structure (SMILES): CN([11CH3])c1ncc(/C=C/c2nc3ccc(OCCF)cc3o2)s1 [[^11C]BF-227]
- binding selectivity with respect to the α-synuclein aggregates (α-synuclein aggregates [1]; binds to amyloid-β aggregates): low binding selectivity
- binding affinity with respect to the α-synuclein aggregates (α-synuclein aggregates [1]): insufficient binding affinity

Structure (SMILES): CNc1ccc(C#C/C=C/c2nc3ccc(NCC(O)CF)cc3s2)cn1 (stereo not shown) [SPAL-T-95, (E)-1-fluoro-3-((2-(4-(6-(methylamino)pyridin-3-yl)but-1-en-3-yn-1-yl)benzo[d]thiazol-6-yl)amino)propan-2-ol]
- delivery into the brain and neurons of the living body (α-synuclein lesions): delivered into the brain and further into neurons of the living body
- binding to α-synuclein lesions in vivo (α-synuclein lesions): bound to α-synuclein lesions
- binding to α-synuclein aggregates formed in the brain of the DLB patient (fluorescence) (α-synuclein aggregates [2]): bound to α-synuclein aggregates
- binding to α-synuclein aggregates compared with binding to tau aggregates or amyloid-β aggregates formed in the brain of the AD patient [3]: greater
- ratio of binding to α-synuclein aggregates to binding to tau aggregates or amyloid-β aggregates, compared with the ratio of C05-05 [3]: higher
- binding to a lesion caused by phosphorylated α-synuclein [4]: bound to a lesion caused by phosphorylated α-synuclein

Structure (SMILES): CNc1cnc(C#C/C=C/c2nc3ccc(OCC(O)CF)nc3s2)cn1 (stereo not shown) [SPAL-E-17, (E)-1-fluoro-3-((2-(4-(5-(methylamino)pyrazin-2-yl)but-1-en-3-yn-1-yl)thiazolo[5,4-b]pyridin-5-yl)oxy)propan-2-ol]
- delivery into the brain and neurons of the living body (α-synuclein lesions): delivered into the brain and further into neurons of the living body
- binding to α-synuclein lesions in vivo (α-synuclein lesions): bound to α-synuclein lesions
- binding to α-synuclein aggregates formed in the brain of the DLB patient (fluorescence) (α-synuclein aggregates [2]): bound to α-synuclein aggregates
- binding to α-synuclein aggregates compared with binding to tau aggregates or amyloid-β aggregates formed in the brain of the AD patient [3]: greater
- ratio of binding to α-synuclein aggregates to binding to tau aggregates or amyloid-β aggregates, compared with the ratio of C05-05 [3]: higher
- binding to a lesion caused by phosphorylated α-synuclein [4]: bound to a lesion caused by phosphorylated α-synuclein

Structure (SMILES): CNc1ccc(C#C/C=C/c2nc3ccc(OCC(O)CF)cc3s2)cn1 (stereo not shown) [Compound C05-05, reference compound]
- delivery into the brain and neurons of the living body (α-synuclein lesions): delivered into the brain and further into neurons of the living body
- binding to α-synuclein lesions in vivo (α-synuclein lesions): bound to α-synuclein lesions

Structure (SMILES): CNc1cnc(C#C/C=C/c2nc3ccc(NCC(O)CF)cc3s2)cn1 (stereo not shown) [SPAL-T-83, (E)-1-fluoro-3-((2-(4-(5-(methylamino)pyrazin-2-yl)but-1-en-3-yn-1-yl)benzo[d]thiazol-6-yl)amino)propan-2-ol]
- delivery into the brain and neurons of the living body (α-synuclein lesions): delivered into the brain and further into neurons of the living body
- binding to α-synuclein lesions in vivo (α-synuclein lesions): bound to α-synuclein lesions
- binding to α-synuclein aggregates formed in the brain of the DLB patient (fluorescence) (α-synuclein aggregates [2]): bound to α-synuclein aggregates
- binding to α-synuclein aggregates compared with binding to tau aggregates or amyloid-β aggregates formed in the brain of the AD patient [3]: greater
- ratio of binding to α-synuclein aggregates to binding to tau aggregates or amyloid-β aggregates, compared with the ratio of C05-05 [3]: higher
- binding to a lesion caused by phosphorylated α-synuclein [4]: bound to a lesion caused by phosphorylated α-synuclein
